According to patent publication US7517874B2 (priority 2007, dated 2009):
Where two headings read alike, the source gives them in different places.

How the values were obtained:
rat CB2 receptor (rCB2) = target: T1, rat CB2 receptor (rCB2) (Rattus norvegicus, UniProt Q9QZN9); test: cell-based; type: cell-based; conditions: for +/− RCB2: agonist or inverse agonist at rCB2
T1 sequence (Q9QZN9 1-360): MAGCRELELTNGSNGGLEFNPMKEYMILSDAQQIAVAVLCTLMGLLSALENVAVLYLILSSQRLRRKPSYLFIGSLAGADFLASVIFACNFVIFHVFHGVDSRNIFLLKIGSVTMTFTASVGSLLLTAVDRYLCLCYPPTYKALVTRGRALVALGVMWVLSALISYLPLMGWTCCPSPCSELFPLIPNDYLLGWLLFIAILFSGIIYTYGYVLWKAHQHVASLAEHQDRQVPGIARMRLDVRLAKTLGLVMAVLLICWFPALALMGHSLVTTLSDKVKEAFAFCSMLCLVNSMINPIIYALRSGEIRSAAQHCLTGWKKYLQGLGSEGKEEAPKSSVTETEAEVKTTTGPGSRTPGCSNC
Method: (§1) The ability of compounds to act as agonists or inverse agonists at human CB2 and CB1 receptors (hCB2, hCB1, respectively) and at the rat CB2 receptor (rCB2) was determined by measuring changes in intracellular cAMP levels. Chinese Hamster Ovary (CHO-K1) cell lines stably expressing hCB2 (Genebank: X74328) or hCB1 (Genebank: X54937) were purchased from Euroscreen (Gosselies, Belgium). The rat CB2 receptor was expressed from genomic DNA (provided by M. Abood, California Pacific Medical Center) in CHO-K1 cells from expression plasmid vector, pcDNA3.1.
(§2) Cell lines were grown in suspension in EX-CELL 302 CHO Serum-free medium (Sigma, cat #14324C) supplemented with 1% Fetal Bovine Serum, glutamine and non-essential amino-acids under 0.4 mg/mL G418 selection.
(§3) Receptor mediated responses were determined by measuring changes in intracellular cAMP using LANCE cAMP detection kit (cat #AD0264, Perkin Elmer, Wellesley, Mass.) based on time-resolved fluorescence resonance energy transfer (TR-FRET). Changes in cAMP were determined in cells pre-incubated with IBMX (isobutyl methylxanthine) and prestimulated with NKH-477 (a water soluble forskolin derivative, cat #1603, Tocris, Ellisville, Mo.) to increase basal cAMP levels as detailed below.
(§4) On the day of the experiment, cells were spun at low speed for 5 min at room temperature. The supernatant was removed and cells were resuspended in stimulation buffer (Hanks Buffered Salt Solution/5 mM HEPES, containing 0.5 mM IBMX (cat #17018, Sigma) and 0.02% BSA (Perkin-Elmer, cat #CR84-100)). Cell clumps were removed by filtering through cell strainer 40 μm (BD Falcon, Discovery Labware, Bedford, Mass.) and diluted to 2×10^5 cells/mL. Antibody supplied with the LANCE cAMP immunoassay kit was then added according to the manufacturer's instructions. An aliquot of cells was taken for un-induced controls. To the remaining cells was added NKH-477 (a water soluble forskolin derivative, Tocris cat #1603) to a final concentration of 2-8 μM. Cells were then incubated for 30 min at room temperature prior to adding to Proxiplates containing test compounds (final DMSO concentration was less than 0.5%) with a Multidrop bulk dispenser, followed by a sixty minute incubation at room temperature. The response was stopped by addition of the detection mix supplied with the LANCE kit. The reagents were allowed to equilibrate for three hours prior to reading on an Envision multi-mode detector (Perkin-Elmer). TR-FRET was measured using a 330-380 nm excitation filter, a 665 nm emission filter, dichroic mirror 380 nm and Z=1 mm. Cyclic AMP concentrations in each well were back-calculated from a cAMP standard curve run concurrently during each assay. Each plate contained 16 wells of forskolin stimulated cells and 16 wells of forskolin plus CP55,940-treated cells. Cells were treated with 1 μM CP55,940 (Tocris cat. #0949). Concentrations of cAMP were expressed as a percent of the difference of these two groups of wells. Concentration-response data including EC50 (the concentration of compound producing 50% of the maximal response) and intrinsic activity (the percent maximal activation compared to full activation by CP55,940) were determined using a four-parameter non-linear regression algorithm (Xlfit equation 251, IDBS).

[1] = target: human CB1 receptor (hCB1) (Homo sapiens, UniProt P21554); test: cell-based; type: cell-based; conditions: for +/− HCB1: agonist or inverse agonist at hCB1
Method: as §1, §2, §3, §4

[2] = groups >100 nM-10 μM and >10 μM, cAMP, CHO-K1 hCB1, read-out: EC50 HCB1

Sequence of human CB1 receptor (hCB1) (P21554 whole entry): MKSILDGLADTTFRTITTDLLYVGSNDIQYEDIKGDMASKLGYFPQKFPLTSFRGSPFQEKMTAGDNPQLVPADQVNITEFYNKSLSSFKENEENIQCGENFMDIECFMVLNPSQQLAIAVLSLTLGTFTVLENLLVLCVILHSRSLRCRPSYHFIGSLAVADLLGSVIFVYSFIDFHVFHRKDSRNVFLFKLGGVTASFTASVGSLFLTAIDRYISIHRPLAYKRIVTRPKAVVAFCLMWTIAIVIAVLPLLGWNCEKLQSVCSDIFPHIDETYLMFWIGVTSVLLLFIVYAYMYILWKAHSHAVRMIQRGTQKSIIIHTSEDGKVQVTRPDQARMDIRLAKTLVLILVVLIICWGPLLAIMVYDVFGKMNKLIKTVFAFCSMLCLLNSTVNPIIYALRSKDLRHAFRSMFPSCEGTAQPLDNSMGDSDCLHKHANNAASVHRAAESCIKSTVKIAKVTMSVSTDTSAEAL

Compound	+/− RCB2 (rat CB2 receptor (rCB2))	EC50 [1]	also measured
CNC(=O)[C@@H](NC(=O)c1nc(-c2ccccc2)n2c1CN(S(=O)(=O)c1ccc(F)cc1)CCC2)C(C)(C)C [Compound 464, (S)-N-(3,3-dimethyl-1-(methylamino)-1-oxobutan-2-yl)-8-(4-fluorophenylsulfonyl)-3-phenyl-6,7,8,9-tetrahydro-5H-imidazo[1,5-a][1,4]diazepine-1-carboxamide]	−	> 10000 nM	
CNC(=O)[C@@H](NC(=O)c1nc(-c2cccc(C(N)=O)c2)n2c1CN(C)CCC2)C(C)(C)C [Compound 422, (S)-3-(3-carbamoylphenyl)-N-(3,3-dimethyl-1-(methylamino)-1-oxobutan-2-yl)-8-methyl-6,7,8,9-tetrahydro-5H-imidazo[1,5-a][1,4]diazepine-1-carboxamide]		> 10000 nM	EC50 (rat CB2 receptor (rCB2)): > 10000 nM
C[C@H](NC(=O)c1nc(-c2ccccc2)n2c1CNCC2)c1ccccc1 [Compound 40, (S)-3-phenyl-N-(1-phenylethyl)-5,6,7,8-tetrahydroimidazo[1,5-a]pyrazine-1-carboxamide]	+	> 10000 nM	
CNC(=O)[C@@H](NC(=O)c1nc(-c2ccc(Cl)c(F)c2)n2c1CN(C)CCC2)C(C)(C)C [Compound 373]	+	> 10000 nM	
CNC(=O)[C@@H](NC(=O)c1nc(C2CCC(C)CC2)n2c1CN(C)CCC2)C(C)(C)C (stereo partly drawn) [Compound 499, (S)-N-(3,3-dimethyl-1-(methylamino)-1-oxobutan-2-yl)-8-methyl-3-(4-methylcyclohexyl)-6,7,8,9-tetrahydro-5H-imidazo[1,5-a][1,4]diazepine-1-carboxamide]	+	> 10000 nM	
CNC(=O)[C@@H](NC(=O)c1nc(C(C)C(C)C)n2c1CN(C)CCC2)C(C)(C)C (stereo partly drawn) [Compound 507, N-((S)-3,3-dimethyl-1-(methylamino)-1-oxobutan-2-yl)-8-methyl-3-(3-methylbutan-2-yl)-6,7,8,9-tetrahydro-5H-imidazo[1,5-a][1,4]diazepine-1-carboxamide]	+		+/− HCB1 [1]: +
CNC(=O)[C@@H](NC(=O)c1nc(-c2ccc(Cl)cc2)n2c1CN(C)CC2)C(C)(C)C [Compound 49, (S)-3-(4-chlorophenyl)-N-(3,3-dimethyl-1-(methylamino)-1-oxobutan-2-yl)-7-methyl-5,6,7,8-tetrahydroimidazo[1,5-a]pyrazine-1-carboxamide]	−	> 10000 nM	
O=C(NN1CCCCC1)c1nc(-c2ccccc2)n2c1CNCC2 [Compound 44, 3-phenyl-N-(piperidin-1-yl)-5,6,7,8-tetrahydroimidazo[1,5-a]pyrazine-1-carboxamide]	−	> 10000 nM	
COCCNC(=O)[C@@H](NC(=O)c1nc(-c2ccccc2)n2c1CN(C)CCC2)C(C)(C)C [Compound 475, (S)-N-(1-(2-methoxyethylamino)-3,3-dimethyl-1-oxobutan-2-yl)-8-methyl-3-phenyl-6,7,8,9-tetrahydro-5H-imidazo[1,5-a][1,4]diazepine-1-carboxamide]	+	> 10000 nM	
O=C(NCC1CCOCC1)c1nc(-c2ccccc2)n2c1CN(C(=O)C1CCOC1)CC2 (stereo not drawn) [Compound 135, 3-phenl-N-((tetrahydro-2H-pyran-4-yl)methyl)-7-(tetrahydrofuran-3-carbonyl)-5,6,7,8-tetrahydroimidazo[1,5-a]pyrazine-1-carboxamide]			EC50 (rat CB2 receptor (rCB2); groups >100 nM-10 μM and >10 μM, cAMP, CHO-K1 rCB2, read-out: EC50 RCB2): > 10000 nM; EC50 [1, 2]: > 10000 nM
CNC(=O)[C@@H](NC(=O)c1nc(C2CCNCC2)n2c1CN(C)CCC2)C(C)(C)C [Compound 503]	+		+/− HCB1 [1]: +
CNC(=O)[C@@H](NC(=O)c1nc(CCC(C)(C)C)n2c1CN(C)CCC2)C(C)(C)C [Compound 488, (S)-N-(3,3-dimethyl-1-(methylamino)-1-oxobutan-2-yl)-3-(3,3-dimethylbutyl)-8-methyl-6,7,8,9-tetrahydro-5H-imidazo[1,5-a][1,4]diazepine-1-carboxamide]	+	> 10000 nM	
CC(C)(C)CNC(=O)c1nc(-c2ccccc2)n2c1CN(S(=O)(=O)c1ccccc1)CC2 [Compound 104, N-neopentyl-3-phenyl-7-(phenylsulfonyl)-5,6,7,8-tetrahydroimidazo[1,5-a]pyrazine-1-carboxamide]	−	> 10000 nM	
CNC(=O)[C@@H](NC(=O)c1nc(C=C(C)C)n2c1CN(C)CC2)C(C)(C)C [Compound 257, (S)-N-(3,3-dimethyl-1-(methylamino)-1-oxobutan-2-yl)-7-methyl-3-(2-methylprop-1-enyl)-5,6,7,8-tetrahydroimidazo[1,5-a]pyrazine-1-carboxamide]	+	> 10000 nM	
CCCCCCc1nc(C(=O)N[C@H](C(=O)NC)C(C)(C)C)c2n1CCCN(C)C2 [Compound 491, (S)-N-(3,3-dimethyl-1-(methylamino)-1-oxobutan-2-yl)-3-hexyl-8-methyl-6,7,8,9-tetrahydro-5H-imidazo[1,5-a][1,4]diazepine-1-carboxamide]	+	> 10000 nM	
CNC(=O)C(NC(=O)c1nc(-c2ccccc2)n2c1CNCCC2)C(C)(C)F (stereo not drawn) [Compound 604, N-(3-fluoro-3-methyl-1-(methylamino)-1-oxobutan-2-yl)-3-phenyl-6,7,8,9-tetrahydro-5H-imidazo[1,5-a][1,4]diazepine-1-carboxamide]	+	> 10000 nM	
CNC(=O)[C@@H](NC(=O)c1nc(-c2ccc(C(=O)N(C)C)c(F)c2)n2c1CN(C)CCC2)C(C)(C)C [Compound 426, (S)-N-(3,3-dimethyl-1-(methylamino)-1-oxobutan-2-yl)-3-(4-(dimethylcarbamoyl)-3-fluorophenyl)-8-methyl-6,7,8,9-tetrahydro-5H-imidazo[1,5-a][1,4]diazepine-1-carboxamide]		> 10000 nM	EC50 (rat CB2 receptor (rCB2)): > 10000 nM
CNC(=O)[C@@H](NC(=O)c1nc(-c2ccccc2)n2c1CN(C(=O)NC(C)(C)C)CC2)C(C)(C)C [Compound 192, (S)-N7-tert-butyl-N1-(3,3-dimethyl-1-(methylamino)-1-oxobutan-2-yl)-3-phenyl-5,6-dihydroimidazo[1,5-a]pyrazine-1,7(8H)-dicarboxamide]	−	> 10000 nM	
CNC(=O)[C@@H](NC(=O)c1nc(-c2ccc(Cl)cc2F)n2c1CN(c1ncccn1)CCC2)C(C)(C)C [Compound 482, 3-(4-chloro-2-fluorophenyl)-N-(3,3-dimethyl-1-(methylamino)-1-oxobutan-2-yl)-8-(pyrimidin-2-yl)-6,7,8,9-tetrahydro-5H-imidazo[1,5-a][1,4]diazepine-1-carboxamide]	+		+/− HCB1 [1]: +
CC(C)(C)C(=O)N1CCn2c(-c3ccccc3)nc(C(=O)NC3CCCCC3)c2C1 [Compound 137, N-cyclohexyl-3-phenyl-7-pivaloyl-5,6,7,8-tetrahydroimidazo[1,5-a]pyrazine-1-carboxamide]	−		EC50 [1, 2]: > 10000 nM
CNC(=O)[C@@H](NC(=O)c1nc(C2=CCCCC2)n2c1CN(C)CC2)C(C)(C)C [Compound 256]	+	> 10000 nM	
